The values below come from ChEMBL document CHEMBL1135598, “In silico and NMR identification of inhibitors of the IGF-I and IGF-binding protein-5 interaction” (J Med Chem, 2002).

Assay [1] addresses T1, Insulin-like growth factor-binding protein 5 (Homo sapiens, UniProt P24593). As to the kind of experiment: Dissociation constant binding to Insulin-like growth factor binding protein 5 at the residue L-81.
For assay [2], the target named is T1, Insulin-like growth factor-binding protein 5. As to the kind of experiment: Dissociation constant in DMSO binding to Insulin-like growth factor binding protein 5 at the residue L81.
Assay [3] shares this target. Nature of the assay: Dissociation constant in DMSO binding to Insulin-like growth factor binding protein 5 at the residue L73.
For assay [4] the target is unchanged. Nature of the assay: Dissociation constant in PBS binding to Insulin-like growth factor binding protein 5 at the residue R87.
Assay [5] shares this target. Nature of the assay: Dissociation constant in DMSO binding to Insulin-like growth factor binding protein 5 at the residue R87.
For assay [6] the target is unchanged. As to the kind of experiment: Dissociation constant in PBS binding to Insulin-like growth factor binding protein 5 at the residue Y86.
Assay [7] shares this target. As to the kind of experiment: Dissociation constant in PBS binding to Insulin-like growth factor binding protein 5 at the residue S85.
The target is the same in assay [8]. As to the kind of experiment: Dissociation constant in DMSO binding to Insulin-like growth factor binding protein 5 at the residue Y50.
The target is the same in assay [9]. As to the kind of experiment: Dissociation constant in DMSO binding to Insulin-like growth factor binding protein 5 at the residue K91.
For assay [10] the target is unchanged. As to the kind of experiment: Dissociation constant in PBS binding to Insulin-like growth factor binding protein 5 at the residue L73.
The target is the same in assay [11]. As to the kind of experiment: Dissociation constant in DMSO binding to Insulin-like growth factor binding protein 5 at the residue S85.
Assay [12] has the same target. As to the kind of experiment: Dissociation constant in PBS binding to Insulin-like growth factor binding protein 5 at the residue K91.
The target is the same in assay [13]. Nature of the assay: Dissociation constant in DMSO binding to Insulin-like growth factor binding protein 5 at the residue Y86.
For assay [14] the target is unchanged. Nature of the assay: Dissociation constant in PBS binding to Insulin-like growth factor binding protein 5 at the residue L81.
Assay [15] has the same target. Nature of the assay: Dissociation constant in PBS binding to Insulin-like growth factor binding protein 5 at the residue Y50.
For assay [16] the target is unchanged. As to the kind of experiment: Dissociation constant in binding to Insulin-like growth factor binding protein 5 at the residue Y86.
Assay [17] has the same target. As to the kind of experiment: Dissociation constant in binding to Insulin-like growth factor binding protein 5 at the residue L81.
Assay [18] has the same target. As to the kind of experiment: Dissociation constant in binding to Insulin-like growth factor binding protein 5 at the residue R87.
For assay [19] the target is unchanged. Nature of the assay: Dissociation constant in binding to Insulin-like growth factor binding protein 5 at the residue S85.
For assay [20] the target is unchanged. As to the kind of experiment: Dissociation constant in BS binding to Insulin-like growth factor binding protein 5 at the residue K91.
Assay [21] shares this target. Nature of the assay: Dissociation constant in binding to Insulin-like growth factor binding protein 5 at the residue L73.
The target is the same in assay [22]. Nature of the assay: Dissociation constant in binding to Insulin-like growth factor binding protein 5 at the residue Y50.

Broadly, the Kd is the equilibrium constant for the complex coming apart. Lower therefore signals higher affinity.

T1 sequence (P24593 whole entry): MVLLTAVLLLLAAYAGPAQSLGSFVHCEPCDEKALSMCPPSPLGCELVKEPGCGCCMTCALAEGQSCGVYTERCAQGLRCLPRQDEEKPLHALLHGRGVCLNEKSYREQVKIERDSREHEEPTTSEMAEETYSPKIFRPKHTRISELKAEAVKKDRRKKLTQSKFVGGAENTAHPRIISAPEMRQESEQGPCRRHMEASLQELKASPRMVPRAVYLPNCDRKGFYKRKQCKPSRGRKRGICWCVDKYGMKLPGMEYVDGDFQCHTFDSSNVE

The compound `CC(C)(C)Oc1ccc(C[C@@H](NC(=O)OCC2c3ccccc3-c3ccccc32)C(=O)O)cc1` showed a Kd in [1] of 718 µM.
Turning to `O=C(N[C@H](Cc1ccc(OP(=O)(O)O)cc1)C(=O)O)OCC1c2ccccc2-c2ccccc21`, the Kd in assay [2] amounted to 2780 µM; in assay [3] it was 1310 µM; in assay [4] it was 2360 µM; in assay [5] it was 1640 µM; in assay [6], 1720 µM; in [7], 2330 µM. The Kd in assay [8] amounted to 1580 µM; in assay [9], 2420 µM; in [10], 2930 µM; in [11] it was 1380 µM; in [12], 2120 µM; in assay [13], 1900 µM. Further, the Kd came to 2880 µM in assay [14], 1820 µM in [15] and 2780 µM in assay [1].
Take `O=C(N[C@H](Cc1ccccc1)C(=O)O)OCC1c2ccccc2-c2ccccc21`: the Kd in [1] turned out to be 1080 µM.
Turning to `C[S+](C)[O-]` [DIMETHYL SULFOXIDE], the Kd worked out at 783000 µM in assay [16]; 610000 µM in [17]; 921000 µM in assay [18]; 650000 µM in [19]; 719000 µM in assay [20]; 541000 µM in assay [21]. Moreover, the Kd in [22] was 648000 µM.
